Data published in US12624068B2, “Exon skipping by peptide nucleic acid derivatives” (OliPass Corporation, priority 2016, dated 2026).
[C(1O2)] = modified PNA monomer acting as cytosine, C(pOq) type, 1O2; [A(5)] = modified PNA monomer acting as adenine, A(p) type, p=5; [A(6)] = modified PNA monomer acting as adenine, A(p) type, p=6; [G(5)] = modified PNA monomer acting as guanine, G(p) type, p=5; {Fethoc} = N-terminal Fethoc cap; {NH2} = C-terminal amide

Key:
[1] = tested on: serum myoglobin; assay: Serum myoglobin level in mdx mice; assay type: in vivo
Protocol: (§1) [Terminal Sacrifice] In Week 48, the animals were subjected to terminal sacrifice for blood sampling. The blood samples were analyzed for the serum level of CK (Creatine Kinase Activity Assay Kit, Cat. Number ab155901, Abcam) and myoglobin (Myoglobin ELISA Kit, Cat. Number ab210965, Abcam) to assess the degree of muscle degradation according to the manufacturer's instructions. Muscle tissues were analyzed by western blot for the full-length dystrophin.
(§2) [Terminal Sacrifice] All the survived animals were sacrificed for blood sampling in Week 66 post the grouping. The blood samples were subjected to ELISA assays for serum creatine kinase (CK) and serum myoglobin as described in “DMD Example 6”.

[2] = tested on: mdx mice; assay: Unscheduled death, sacrifice or lymphoma in chronically treated mdx mice; assay type: in vivo, mouse; details: DMD-ASO 1 50 pmole/Kg, DMD-ASO 2 or DMD-ASO 6 10 pmole/Kg, subcutaneous 2× per week, 66 weeks
From the text: [Grouping & ASO Treatment] Male mdx mice (7 weeks old) were randomly assigned to 4 groups of 0 (mdx negative control), 10, 50, and 200 pmole/Kg “DMD-ASO 1” based on individual grip strength scores by grip test. (N=12 per group) A satellite group of 12 male C57BL/6 mice (7 weeks old) was included in this study as the wild type negative control group for the full-length dystrophin expression level.
The 50 and 200 pmole/Kg group subcutaneously received “DMD-ASO 1” as dissolved in PBS, 2× per week until the final sacrifice in Week 43. In the meantime, the 10 pmole/Kg group subcutaneously received “DMD-ASO 1” initially 2× per week during Week 0 to 8, and 3× per week afterwards to increase the ASO exposure.
[Miscellaneous Findings] There were three cases of unscheduled sacrifice or death (Weeks 26, 39 and 43) in the mdx negative control group due to a large mass of muscular lymphoma developed most likely by chronic muscular inflammation.
“DMD-ASO 1”, “DMD-ASO 2” and “DMD-ASO 6” were evaluated for their physiological effects in male mdx mice by long term subcutaneous administration. In this evaluation the animals were not subjected to physical tests requiring muscular stress in order to keep the transcription of the dystrophin gene undisturbed by excessive muscular stimulation.
[Animals & Grouping] Male mdx mice (6 weeks old) were randomly assigned to 4 groups of the mdx negative control (no ASO treatment), “DMD-ASO 1” 50 pmole/Kg, “DMD-ASO 2” […], and “DMD-ASO 6” […] based on the body weight. (N=12-13 per group) 12 male C57BL/6 mice (6 weeks old) were adopted as the wild type (WT) negative control group.
[Injection Solutions & ASO Treatment] Aqueous mother stock solutions of the ASOs were serially diluted in PBS to prepare the injection solutions of 25 nM “DMD-ASO 1” for 50 pmole/Kg “DMD-ASO 1”, 5 nM “DMD-ASO 2” for “DMD-ASO 2” 10 pmole/Kg, and 5 nM “DMD-ASO 6” for “DMD-ASO 6” 10 pmole/Kg. The animals were subcutaneously administered with the injection solutions at 2 mL/Kg, 2× per week.

[3] = tested on: serum creatine kinase (CK); assay: Serum creatine kinase level in mdx mice; assay type: in vivo; details: Week 48
Protocol: as §1, §2

[4] = tested on: mdx mice; assay: Walking distance on tread mill in mdx mice; assay type: in vivo, mouse; details: first 30 weeks, injection solutions without Tween 80
Protocol: “DMD-ASO 2” was chronically administered to mdx mice to evaluate its ability to improve muscle function by the walking distance on tread mill, and to inhibit the muscle degradation by the serum levels of creatine kinase (CK) and myoglobin.
[Animals & Grouping] Male mdx mice (6 weeks old) were randomly assigned to three groups of the mdx negative control (no ASO treatment), “DMD-ASO 2” 10 pmole/Kg, and “DMD-ASO 2” […] based on the body weight. (N=16 per group) 12 male C57BL/6 mice (6 weeks old) were adopted as the wild type (WT) negative control group.
[Injection Solutions & ASO Treatment] An aqueous mother stock solution of “DMD-ASO 2” was diluted either in PBS or in PBS supplemented with 0.1% Tween 80 to prepare injection solutions of […] “DMD-ASO 2” for 10 pmole/Kg and 30 pmole/Kg “DMD-ASO 2”, respectively. Supplementation of PBS injection solution with 0.1% Tween 80 was considered to be necessary to prevent the ASO molecules from sticking to plastic injection vials, pipette tips, and syringes.
[Walking Distance on Tread Mill] During the first 30 weeks post grouping, the animals were administered with the injection solutions without Tween 80 2× per week at 2 mL/Kg. Starting from Week 7, the animals were subjected to walking on a tread mill (Model #LE8710, PanLab) on a weekly basis. […]

[5] = tested on: full-length dystrophin; assay: Dystrophin western blot in triceps of mdx mice; assay type: in vivo; details: Week 48
Protocol: [Full-length Dystrophin Expression in Triceps by Western Blot] Following homogenization at liquid nitrogen temperature, muscle (triceps) samples were subjected to lysis in RIPA buffer supplemented with 1% SDS. The protein concentration in each lysate was quantified by BCA assay against the BSA standard. […] of protein of each lysate was subjected to electrophoretic separation on an 8% PAGE gel. Then the PVDF membrane was probed with a C-terminal targeting dystrophin antibody (Cat. Number ab154168, Abcam).

[6] = tested on: full-length human SNAP25 mRNA; assay: SNAP25 qPCR in SiMa cells; assay type: cell-based; details: 100 aM
Protocol: [Cell Culture & ASO Treatment] SiMa cells were grown in 60 mm culture dish containing 5 mL culture medium, and were treated with “SNAP-ASO 3” at 0 zM (negative control), 1 zM, 10 zM, 100 zM or 1 aM, 10 aM, or 100 aM. (2 culture dishes per ASO concentration) [RNA Extraction & cDNA Synthesis] Total RNA was extracted from cells using “RNeasy Mini Kit” (Cat. Number 74106, Qiagen) according to the manufacturer's instructions. […] [qPCR Amplification] The PCR reactions were monitored with a Taqman probe [(5' 3') 56-[…] NO: 137)] targeting the junction of exon 6 and exon 7 against a set of exon-specific primers [SNAP-exon 6_forward: (5'→3') […] NO: 138); and SNAP-exon 8_reverse(2): (5'→3') […] NO: 139)].

[7] = tested on: 10-mer complementary DNA; assay: Tm between PNA derivatives and 10-mer complementary DNA (N- or C-terminal); assay type: binding; details: uncorrected
Procedure, shortened: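 4 μM 10-mer PNA with 4 μM complementary 10-mer DNA in pH 7.16 buffer (10 mM sodium phosphate, 100 mM NaCl) was heated at 90 °C for a minute, slowly cooled to ambient, then Tm measured by UV absorbance at 260 nm.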

[8] = tested on: rat SNAP25 pre-mRNA; assay: SNAP25 nested PCR for exon skipping in PC12 cells; assay type: cell-based
Protocol: PC12 cells were maintained in RPMI 1640 medium supplemented with 5% FBS, 10% horse serum, 1% streptomycin/penicillin, 1% L-glutamine, and 1% sodium pyruvate under 5% CO2 atmosphere at 37° C. Cells grown in 60 mm culture dish containing 5 mL culture medium were treated with “SNAP-ASO 3” at 0 (negative control), 10, 100 or 1,000 zM. [RNA Extraction & cDNA Synthesis by One-step PCR] Following an incubation with “SNAP-ASO 3” for 42 hours, the cells were treated with 100 μg/mL cycloheximide for another 6 hours in order to freeze the ribosomal translation. Then total RNA was extracted using “Universal RNA Extraction Kit” (Cat. Number 9767, Takara) according to the manufacturer's instructions. […] NO: 126); and SNAP-exon 14_reverse: (5'→3') […] [Nested PCR Amplification] […] NO: 128); SNAP-exon 14n_reverse: (5'→3') […] [Identification of Exon Skipping Products] The PCR products were subjected to electrophoretic separation on a 2% agarose gel. The bands of target size were collected and analyzed by Sanger Sequencing.

[9] = tested on: full-length SNAP25 mRNA; assay: SNAP25 nested qPCR in PC12 cells; assay type: cell-based, rat
Protocol: [Cell Culture & ASO Treatment] PC12 cells grown in 60 mm culture dish containing 5 mL culture medium were treated with “SNAP-ASO 3” at 0 (negative control), 10, 100 or 1,000 zM. (2 culture dishes per ASO concentration) [RNA Extraction & cDNA Synthesis by One-step RT-PCR] Following an incubation with “SNAP-ASO 3” for 42 hours, the cells were treated 100 μg/mL cycloheximide for another 6 hours to freeze the ribosomal translation. Then total RNA was extracted from cells using “Universal RNA Extraction Kit” (Cat. Number 9767, Takara) according to the manufacturer's instructions. […] NO: 130); and SNAP-exon 14_reverse: (5'→3') […] [Nested qPCR Amplification] […] NO: 132); and SNAP-exon 8q_reverse: (5'→3') […] The qPCR reaction was followed with a Taqman probe of [(5'→3') 5,6-[…] NO: 134)] targeting the junction of exon 7 and exon 8 in order to quantify the full-length SNAP25 mRNA.

Substance | serum myoglobin level smaller than the mdx negative control group by ([1]; 10 pmole/Kg, Week 48) [%] | serum myoglobin level smaller than the mdx negative control group by ([1]; 30 pmole/Kg, Week 48) [%] | serum myoglobin level smaller than the mdx negative control group by ([1]; DMD-ASO 1 50 pmole/Kg, DMD-ASO 2 or DMD-ASO 6 10 pmole/Kg, 2× per week, Week 66) [%] | premature deaths (unscheduled death or sacrifice) [2] | serum CK level smaller than the mdx negative control group by ([3]; 10 pmole/Kg) [%] | serum CK level smaller than the mdx negative control group by ([3]; 30 pmole/Kg) [%] | walking distance on tread mill compared to the mdx negative control group [4] | 130K dystrophin band intensity (western blot, triceps) ([5]; 10 pmole/Kg) | 117K dystrophin band (western blot, triceps) ([5]; 10 and 30 pmole/Kg) | inhibition of full-length human SNAP25 mRNA level (qPCR) [6] [%] | Tm Value, 10-mer DNA against C-Terminal [7] [°C] | Tm Value, 10-mer DNA against N-Terminal [7] [°C] | intensity of the full-length SNAP25 mRNA by nested PCR ([8]; PC12 cells, 10, 100 or 1,000 zM) | SNAP25 exon skipping by nested PCR ([8]; PC12 cells, 10 zM, 42 hours then cycloheximide 6 hours) | decrease of full-length SNAP25 mRNA level (qPCR) ([9]; PC12 cells, 10 zM) [%] | decrease of full-length SNAP25 mRNA level (qPCR) ([9]; PC12 cells, 100 zM) [%] | decrease of full-length SNAP25 mRNA level (qPCR) ([9]; PC12 cells, 1,000 zM)
Fethoc-TTG(6)CA(5)G-AG(6)C-C(1O2)TC-AA(5)A-A(5)T-NH2 (antisense TTGCAGAGCCTCAAAAT; Fethoc N-cap, C-terminal amide, chemistry not fully specified) [DMD-ASO 2] | 67 | 58 | 49 | one death in Week 56 and another in Week 62 | 58 | 38 | failed to show any significant improvements | considerably stronger | markedly stronger |  |  |  |  |  |  |  | 
Fethoc-TG(5)T-TA(6)C-C(1O2)CT-GG(5)G-A(5)T-NH2 (antisense TGTTACCCTGGGAT; all peptide nucleic acid (PNA), [G(5)] at 2, 11, [A(6)] at 5, [C(1O2)] at 7, [A(5)] at 13, 5' {Fethoc}, 3' {NH2}; peptide nucleic acid written N to C) [SNAP-ASO 3] |  |  |  |  |  |  |  |  |  | 40 | 88.7 | 77.3 | decreased most in the cells treated with 10 zM | yielded a faint PCR band assignable to the skipping of exons 5-7 | ~50 | 20 | slightly higher than the level of the cells without ASO treatment
